# Data from ChEMBL document CHEMBL1125452, “Rationally designed "dipeptoid" analogues of CCK. A Free-Wilson/Fujita-Ban analysis of some alpha-methyltryptophan derivatives as CCK-B antagonists” (J Med Chem, 1992).
# Target: T1, Gastrin/cholecystokinin type B receptor (Mus musculus, UniProt P56481)
# T1 sequence (P56481 whole entry): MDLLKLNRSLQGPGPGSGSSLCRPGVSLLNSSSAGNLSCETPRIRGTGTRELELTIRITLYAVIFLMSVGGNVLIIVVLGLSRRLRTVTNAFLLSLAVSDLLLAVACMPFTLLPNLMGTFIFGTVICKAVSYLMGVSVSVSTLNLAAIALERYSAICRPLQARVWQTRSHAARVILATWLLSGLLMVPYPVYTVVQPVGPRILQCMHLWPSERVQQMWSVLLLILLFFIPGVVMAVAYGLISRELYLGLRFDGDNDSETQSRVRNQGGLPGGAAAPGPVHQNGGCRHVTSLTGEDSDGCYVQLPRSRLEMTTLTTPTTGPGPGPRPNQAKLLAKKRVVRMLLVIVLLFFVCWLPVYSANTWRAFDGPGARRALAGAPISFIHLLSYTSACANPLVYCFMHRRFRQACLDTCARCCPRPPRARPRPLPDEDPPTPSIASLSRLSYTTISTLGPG
# Assay: Cholecystokinin type B receptor binding assay performed on homogenized cerebral cortex from male mouse
# Format: tissue-based
row,SMILES,Ki [µM]
1,C[C@](Cc1c[nH]c2ccccc12)(NC(=O)OC1C2CC3CC(C2)CC1C3)C(=O)N[C@H](CO)Cc1ccccc1 (some centres not stated),0.00603
2,C[C@@](Cc1c[nH]c2ccccc12)(NC(=O)OC1C2CC3CC(C2)CC1C3)C(=O)N[C@H](CNC(=O)CCC(=O)O)Cc1ccccc1 (some centres not stated),0.166
3,O=C(O)CCC(=O)NC(CNC(=O)[C@@H](Cc1c[nH]c2ccccc12)NC(=O)OC1C2CC3CC(C2)CC1C3)c1ccccc1 (some centres not stated),0.355
4,O=C(O)CCC(=O)N[C@@H](CNC(=O)[C@H](Cc1c[nH]c2ccccc12)NC(=O)OC1C2CC3CC(C2)CC1C3)c1ccccc1 (some centres not stated),0.977
5,CC1(C)[C@H]2CC[C@@]1(C)[C@@H](OC(=O)N[C@](C)(Cc1c[nH]c3ccccc13)C(=O)NC[C@H](NC(=O)CCC(=O)O)c1ccccc1)C2,0.00204
6,O=C(O)C[C@@H](Cc1ccccc1)NC(=O)[C@H](Cc1c[nH]c2ccccc12)NC(=O)OC1C2CC3CC(C2)CC1C3 (some centres not stated),0.0933
7,CC1(C)C2CCC1(C)[C@@H](OC(=O)N[C@@H](Cc1c[nH]c3ccccc13)C(=O)NC[C@H](NC(=O)CCC(=O)O)c1ccccc1)C2 (some centres not stated),0.398
8,C[C@@H]1CCCC[C@H]1OC(=O)NC(C)(Cc1c[nH]c2ccccc12)C(=O)NCCc1ccccc1 (some centres not stated),0.135
9,C[C@@H]1CCCC[C@H]1OC(=O)N[C@](C)(Cc1c[nH]c2ccccc12)C(=O)N[C@H](CNC(=O)/C=C/C(=O)O)Cc1ccccc1,0.00115
10,O=C(O)C[C@@H](Cc1ccccc1)NC(=O)[C@@H](Cc1c[nH]c2ccccc12)NC(=O)OC1C2CC3CC(C2)CC1C3 (some centres not stated),0.138
11,CC1(C)C2CCC1(C)[C@@H](OC(=O)N[C@H](Cc1c[nH]c3ccccc13)C(=O)NC[C@H](NC(=O)/C=C/C(=O)O)c1ccccc1)C2 (some centres not stated),0.0813
12,CC(Cc1c[nH]c2ccccc12)(NC(=O)O[C@H]1CC2CCC1(C)C2(C)C)C(=O)NCCc1ccccc1 (some centres not stated),0.126
13,C[C@](Cc1c[nH]c2ccccc12)(NC(=O)OC12CC3CC(CC(C3)C1)C2)C(=O)N[C@H](CO)Cc1ccccc1,0.0204
14,C[C@@H]1CCCC[C@H]1OC(=O)N[C@](C)(Cc1c[nH]c2ccccc12)C(=O)NC[C@H](NC(=O)CCC(=O)O)c1ccccc1,0.00372
15,CC1(C)C2CCC1(C)C(OC(=O)N[C@](C)(Cc1c[nH]c3ccccc13)C(=O)N[C@H](CO)Cc1ccccc1)C2 (some centres not stated),0.0155
16,CC1(C)C2CCC1(C)[C@@H](OC(=O)N[C@H](Cc1c[nH]c3ccccc13)C(=O)NC[C@H](NC(=O)CCC(=O)O)c1ccccc1)C2 (some centres not stated),0.302
17,C[C@@H]1CCCC[C@H]1OC(=O)N[C@](C)(Cc1c[nH]c2ccccc12)C(=O)NC[C@H](NC(=O)/C=C/C(=O)O)c1ccccc1,0.00389
18,C[C@](Cc1c[nH]c2ccccc12)(NC(=O)OC1C2CC3CC(C2)CC1C3)C(=O)NC[C@H](NC(=O)/C=C/C(=O)O)c1ccccc1 (some centres not stated),0.000513
19,CC1(C)C2CCC1(C)[C@@H](OC(=O)N[C@](C)(Cc1c[nH]c3ccccc13)C(=O)NC[C@H](NC(=O)/C=C/C(=O)O)c1ccccc1)C2 (some centres not stated),0.00219
20,C[C@](Cc1c[nH]c2ccccc12)(NC(=O)OC1C2CC3CC(C2)CC1C3)C(=O)N[C@H](CNC(=O)/C=C/C(=O)O)Cc1ccccc1 (some centres not stated),0.000708
21,C[C@@H]1CCCC[C@H]1OC(=O)N[C@](C)(Cc1c[nH]c2ccccc12)C(=O)N[C@H](CNC(=O)CCC(=O)O)Cc1ccccc1,0.0123
22,C[C@](Cc1c[nH]c2ccccc12)(NC(=O)OC1C2CC3CC(C2)CC1C3)C(=O)N[C@H](CNC(=O)CCC(=O)O)Cc1ccccc1 (some centres not stated),0.00398
23,CC(Cc1c[nH]c2ccccc12)(NC(=O)OC12CC3CC(CC(C3)C1)C2)C(=O)NCCc1ccccc1 (configuration not stated),0.191
24,O=C(N[C@H](Cc1c[nH]c2ccccc12)C(=O)N[C@H](CO)Cc1ccccc1)OC1C2CC3CC(C2)CC1C3 (stereo in doubt; 9),0.813
25,O=C(N[C@H](Cc1c[nH]c2ccccc12)C(=O)N[C@H](CO)Cc1ccccc1)OC1C2CC3CC(C2)CC1C3 (stereo in doubt; 10),2.09
26,C[C@@H]1CCCC[C@H]1OC(=O)N[C@](C)(Cc1c[nH]c2ccccc12)C(=O)N[C@H](CO)Cc1ccccc1 (stereo in doubt; 11),0.0151
27,C[C@@H]1CCCC[C@H]1OC(=O)N[C@](C)(Cc1c[nH]c2ccccc12)C(=O)N[C@H](CO)Cc1ccccc1 (stereo in doubt; 28),0.00891
